Assay [1] addresses T1, HsTIM (human triosephosphate isomerase) (Homo sapiens, UniProt P60174, N16D).
T1 construct: gene TPI1; full-length; recombinant E. coli BL21-CodonPlus(DE3)-RIL, vector pET3a-HisTEV, N-terminal His6-TEV tag cut by TEVp for purified assays; tagged plasmid in E. coli tim-deletion BL21-Gold(DE3) cells for omeprazole; homodimer, 5 Cys per subunit
Nature of the assay: residual activity after preincubation, coupled alpha-GPDH / NADH assay at […] nm. Format: biochemical. As to conditions: read-out: activity dropped to 50%.

The target of assay [2] is T2, HsTIM (human triosephosphate isomerase) (Homo sapiens, UniProt P60174). In words: Ellman free thiol count after derivatization. Format: binding. More on the design: gene TPI1; full-length; recombinant E. coli BL21-CodonPlus(DE3)-RIL, vector pET3a-HisTEV, N-terminal His6-TEV tag cut by TEVp for purified assays; tagged plasmid in E. coli tim-deletion BL21-Gold(DE3) cells for omeprazole; homodimer, 5 Cys per subunit. As to conditions: covalent; 250 µM compound, 2 h at 37 °C, enzyme 0.5 mg/mL, TE buffer pH 7.4. An excerpt:
Ellman free thiol count after derivatization on HsTIM (human triosephosphate isomerase)
Background: DTNB colorimetry detects thiols as they appear.

Assay [3] concerns the target T2, HsTIM (human triosephosphate isomerase). In words: TIM activity in lysate of treated E. coli tim-deletion cells. Format: cell-based. More on the design: gene TPI1; full-length; tagged plasmid in E. coli tim-deletion BL21-Gold(DE3) cells for omeprazole; homodimer, 5 Cys per subunit. As to conditions: residual activity; 0.75 mM omeprazole, 22 h at 37 °C, M9 medium; covalent. An excerpt:
TIM activity in lysate of treated E. coli tim-deletion cells on HsTIM (human triosephosphate isomerase)

pIC50: −log10 of the molar value.

T1 sequence (P60174 2-249 N16D): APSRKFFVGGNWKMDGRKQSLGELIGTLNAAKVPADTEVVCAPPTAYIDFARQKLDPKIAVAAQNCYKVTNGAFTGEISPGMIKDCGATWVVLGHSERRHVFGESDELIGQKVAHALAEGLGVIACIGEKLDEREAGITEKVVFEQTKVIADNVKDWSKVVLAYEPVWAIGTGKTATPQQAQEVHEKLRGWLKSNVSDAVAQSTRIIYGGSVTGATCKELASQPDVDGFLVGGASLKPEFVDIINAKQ
T2 sequence (P60174 2-249): as the sequence (P60174 2-249 N16D) above, with D15N counted along it

Regarding `O=C(O)c1cc(SSc2ccc([N+](=O)[O-])c(C(=O)O)c2)ccc1[N+](=O)[O-]` [DTNB, 5,5′-dithiobis-(2-nitrobenzoic acid)], in assay [1], the pIC50 is 5.52.

Regarding `CSS(C)(=O)=O` [MMTS], in assay [2], the “Derivatized Cys/Subunit” value was found to be 1 Cys/subunit. The pIC50 in assay [1] is 5.12.

`CS(=O)(=O)SCCS(=O)(=O)O` [MTSES, sodium 2-[(methylsulfonyl)sulfanyl] ethanesulfonate]: the “Derivatized Cys/Subunit” value in assay [2] turned out to be 1 Cys/subunit. For the same molecule, the pIC50 in assay [1] was 5.22. For the molecule `COc1ccc2[nH]c([S+]([O-])Cc3ncc(C)c(OC)c3C)nc2c1` (stereo not drawn) [omeprazole], the “Enzyme Activity (%)” value in assay [3] is reported as 96 ± 4%.
